Data as given in article PMC6205551, “Molecular analysis of the dual targeting of the epidermal growth factor receptor and the O^6-methylguanine-DNA methyltransferase with a double arm hybrid molecule” (Oncotarget, 2018).

Columns and labels:
[1] = biological target: T1, O^6-methylguanine-DNA methyltransferase (MGMT) (Homo sapiens, UniProt P16455); assay: MALDI-TOF MS of tryptic peptides of isolated MGMT incubated with […] compound (S-benzylation); format: binding
T1 sequence (P16455 1-207): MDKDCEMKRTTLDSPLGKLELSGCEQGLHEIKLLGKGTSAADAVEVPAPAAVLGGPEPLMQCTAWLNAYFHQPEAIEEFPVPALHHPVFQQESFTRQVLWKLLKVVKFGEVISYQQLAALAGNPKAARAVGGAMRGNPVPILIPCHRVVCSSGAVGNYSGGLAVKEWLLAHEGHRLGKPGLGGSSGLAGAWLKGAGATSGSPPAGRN

HER2 = biological target: T2, HER2 (Homo sapiens, UniProt P04626); assay: isolated kinase profiling (Carna), single dose […], ATP at Km; format: biochemical
T2 construct: gene ERBB2

HER4 = biological target: T3, HER4 (Homo sapiens, UniProt Q15303); assay: as above; format: biochemical
T3 construct: gene ERBB4

[2] = biological target: epidermal growth factor receptor (EGFR) (Homo sapiens, UniProt P00533); assay: in vitro EGFR kinase assay (PGT substrate, […] ATP, ELISA); format: biochemical
EGFR (L858R) = EGFR (L858R) (Homo sapiens, UniProt P00533, L858R); assay: isolated kinase profiling (Carna), single dose […], ATP at Km; format: biochemical

T2 sequence (P04626 23-1255): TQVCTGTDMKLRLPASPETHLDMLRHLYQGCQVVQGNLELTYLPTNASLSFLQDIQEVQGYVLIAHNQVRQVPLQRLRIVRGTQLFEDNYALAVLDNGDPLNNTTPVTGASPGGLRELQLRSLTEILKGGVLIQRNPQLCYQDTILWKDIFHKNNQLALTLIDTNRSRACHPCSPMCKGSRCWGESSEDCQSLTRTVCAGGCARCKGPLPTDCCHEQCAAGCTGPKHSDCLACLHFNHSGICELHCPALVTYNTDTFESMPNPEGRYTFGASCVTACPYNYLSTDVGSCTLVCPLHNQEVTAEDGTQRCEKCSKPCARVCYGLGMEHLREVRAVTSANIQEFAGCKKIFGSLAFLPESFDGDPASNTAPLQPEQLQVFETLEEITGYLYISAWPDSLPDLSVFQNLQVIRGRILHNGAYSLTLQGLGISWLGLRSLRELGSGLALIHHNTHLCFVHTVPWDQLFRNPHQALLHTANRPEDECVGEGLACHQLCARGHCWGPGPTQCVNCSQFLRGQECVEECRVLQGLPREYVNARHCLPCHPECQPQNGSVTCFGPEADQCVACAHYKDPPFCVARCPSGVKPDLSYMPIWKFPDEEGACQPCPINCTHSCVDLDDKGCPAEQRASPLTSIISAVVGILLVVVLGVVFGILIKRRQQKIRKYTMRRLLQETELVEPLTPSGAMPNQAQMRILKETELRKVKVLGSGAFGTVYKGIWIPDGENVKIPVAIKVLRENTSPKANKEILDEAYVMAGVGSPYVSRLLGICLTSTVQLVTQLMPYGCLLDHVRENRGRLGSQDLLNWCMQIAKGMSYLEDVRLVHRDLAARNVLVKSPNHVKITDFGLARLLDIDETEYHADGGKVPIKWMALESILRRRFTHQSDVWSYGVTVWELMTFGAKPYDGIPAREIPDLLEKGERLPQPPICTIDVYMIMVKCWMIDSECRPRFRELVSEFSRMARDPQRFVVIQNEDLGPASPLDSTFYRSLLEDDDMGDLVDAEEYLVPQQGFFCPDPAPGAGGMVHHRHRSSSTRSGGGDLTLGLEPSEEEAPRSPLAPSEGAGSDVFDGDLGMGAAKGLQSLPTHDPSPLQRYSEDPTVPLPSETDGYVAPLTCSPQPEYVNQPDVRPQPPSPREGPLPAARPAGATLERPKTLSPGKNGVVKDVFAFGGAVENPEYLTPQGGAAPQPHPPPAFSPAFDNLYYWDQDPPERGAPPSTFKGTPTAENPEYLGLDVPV
T3 sequence (Q15303 26-1308): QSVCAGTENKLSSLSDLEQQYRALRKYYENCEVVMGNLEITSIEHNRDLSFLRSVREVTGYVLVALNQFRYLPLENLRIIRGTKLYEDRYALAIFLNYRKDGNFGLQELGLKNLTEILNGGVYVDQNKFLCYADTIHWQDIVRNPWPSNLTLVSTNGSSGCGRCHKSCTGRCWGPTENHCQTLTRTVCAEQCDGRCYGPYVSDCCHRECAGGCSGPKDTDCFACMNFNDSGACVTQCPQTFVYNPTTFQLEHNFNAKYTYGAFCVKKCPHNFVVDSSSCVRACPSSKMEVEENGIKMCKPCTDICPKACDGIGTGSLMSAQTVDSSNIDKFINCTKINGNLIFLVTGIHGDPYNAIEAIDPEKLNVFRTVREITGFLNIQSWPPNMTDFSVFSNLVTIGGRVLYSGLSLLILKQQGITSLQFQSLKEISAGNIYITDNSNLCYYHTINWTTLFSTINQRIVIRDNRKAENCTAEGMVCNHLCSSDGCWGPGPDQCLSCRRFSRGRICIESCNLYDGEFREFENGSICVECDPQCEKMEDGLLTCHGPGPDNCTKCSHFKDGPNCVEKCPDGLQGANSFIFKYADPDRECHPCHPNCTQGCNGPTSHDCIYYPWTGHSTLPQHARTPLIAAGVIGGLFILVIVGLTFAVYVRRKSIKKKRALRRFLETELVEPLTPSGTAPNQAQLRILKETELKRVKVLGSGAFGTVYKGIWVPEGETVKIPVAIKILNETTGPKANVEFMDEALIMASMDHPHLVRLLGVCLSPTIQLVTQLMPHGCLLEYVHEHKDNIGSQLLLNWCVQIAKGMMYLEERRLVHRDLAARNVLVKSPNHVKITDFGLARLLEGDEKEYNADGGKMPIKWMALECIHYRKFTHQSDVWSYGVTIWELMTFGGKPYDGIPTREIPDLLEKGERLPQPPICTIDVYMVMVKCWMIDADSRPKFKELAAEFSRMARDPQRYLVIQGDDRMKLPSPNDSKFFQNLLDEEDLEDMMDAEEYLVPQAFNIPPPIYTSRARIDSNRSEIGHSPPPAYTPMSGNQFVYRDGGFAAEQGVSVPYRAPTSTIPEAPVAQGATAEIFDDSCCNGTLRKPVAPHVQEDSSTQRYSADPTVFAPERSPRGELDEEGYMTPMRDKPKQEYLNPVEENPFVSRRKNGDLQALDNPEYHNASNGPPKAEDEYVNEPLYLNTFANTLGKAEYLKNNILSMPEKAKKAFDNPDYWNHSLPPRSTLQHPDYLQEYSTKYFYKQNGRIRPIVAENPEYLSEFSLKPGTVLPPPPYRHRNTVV

| Structure (SMILES) | MALDI-TOF MS of tryptic peptides of isolated MGMT incubated with 10 μM compound [1] | isolated kinase profiling (Carna), single dose 500 nM, ATP at Km (HER2) | isolated kinase profiling (Carna), single dose 500 nM, ATP at Km (HER4) | IC50 [2] [nM] | isolated kinase profiling (Carna), single dose 500 nM, ATP at Km (EGFR (L858R)) |
| --- | --- | --- | --- | --- | --- |
| Nc1nc(OCc2ccccc2)c2nc[nH]c2n1 [O^6-BG] | when we treated MGMT with MR30 or O^6-BG, we observed a mass shift |  |  |  |  |
| Nc1nc(OCc2ccccc2)c2ncn(C(=O)N3CCN(CCNc4ccc5ncnc(Nc6cccc(Br)c6)c5c4)CC3)c2n1 [compound 5, (2-amino-6-(benzyloxy)-9H-purin-9-yl)(4-(2-((4-((3-bromophenyl)amino)quinazolin-6-yl)amino)ethyl)piperazin-1-yl)methanone] | like O^6-BG, MR30 is capable of binding to MGMT and alkylate its Cys145 | MR30 selectively inhibited kinases from HER family of proteins, including EGFR, EGFR (L858R, d746-750), HER2 and HER4 | MR30 selectively inhibited kinases from HER family of proteins, including EGFR, EGFR (L858R, d746-750), HER2 and HER4 | 300 ± 170 | MR30, selectively inhibited kinases from the HER family of proteins [e.g. EGFR wild-type, EGFR (L858R) |
